Data from ChEMBL document CHEMBL6109135, “Development of Diphenyl-1,2,4-Oxadiazole Analogues as Allosteric Modulators of the RXFP3 Receptor: Evaluation of Importance of the N-Substituted-2-Pyrrolidone Moiety in RLX-33” (J Med Chem, 2025).

Columns and labels:
[1] = biological target: T1, Relaxin-3 receptor 1 (Homo sapiens, UniProt Q9NSD7); assay: Negative allosteric modulation of human RXFP3 receptor expressed in CHO-K1 cell membrane assessed as inhibition of relaxin-3-induced stimulation of [35S]GTPgammaS binding followed by relaxin-3 addition and measured after 1 hr; type: functional, cell membranes
T1 sequence (Q9NSD7 whole entry): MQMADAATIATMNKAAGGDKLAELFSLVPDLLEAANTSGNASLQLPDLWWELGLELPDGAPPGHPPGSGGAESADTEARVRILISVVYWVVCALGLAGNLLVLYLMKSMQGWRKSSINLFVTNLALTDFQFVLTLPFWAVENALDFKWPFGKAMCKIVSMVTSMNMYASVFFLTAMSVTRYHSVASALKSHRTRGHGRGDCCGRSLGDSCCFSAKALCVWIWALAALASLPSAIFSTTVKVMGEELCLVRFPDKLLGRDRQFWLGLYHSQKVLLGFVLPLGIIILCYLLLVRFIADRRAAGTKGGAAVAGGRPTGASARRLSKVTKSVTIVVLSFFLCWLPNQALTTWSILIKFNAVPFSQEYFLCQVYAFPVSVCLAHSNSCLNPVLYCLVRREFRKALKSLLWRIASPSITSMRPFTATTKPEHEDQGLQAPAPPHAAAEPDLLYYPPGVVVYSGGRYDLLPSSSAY

[2] = Kinetic solubility of compound in PBS at pH 7.4 incubated under agitation for 2 hrs by LC-MS/MS analysis; type: physicochemical
[3] = biological target: T1, Relaxin-3 receptor 1; assay: Negative allosteric modulation of human RXFP3 receptor expressed in CHO-K1 cells assessed as cAMP accumulation incubated for 30 mins in presence of forskolin by TR-FRET assay; type: functional, cell-based
[4] = Apparent permeability compound across apical to basolateral side in MDCK-MDR1 cells at 10 uM incubated for 30 to 90 mins; type: ADME, cell-based, Canis lupus familiaris; conditions: dog
[5] = Apparent permeability of compound across basolateral to apical side in MDCK-MDR1 cells at 10 uM incubated for 30 to 90 mins; type: ADME, cell-based, Canis lupus familiaris; conditions: dog
[6] = Efflux ratio of apparent permeability across basolateral to apical over apical to basolateral side in MDCK-MDR1 cells at 10 uM incubated for 30 to 90 mins; type: ADME, cell-based, Canis lupus familiaris; conditions: dog, time 30-90 min
[7] = Metabolic stability in rat liver microsomes assessed as half life measured up to 45 mins by LC-MS/MS analysis; type: ADME, Microsome
[8] = Metabolic stability in rat liver microsomes assessed as clearance measured up to 45 mins by LC-MS/MS analysis; type: ADME, Microsome; conditions: 0.75 h
[9] = biological target: T2, Relaxin receptor 1 (Homo sapiens, UniProt Q9HBX9); assay: Negative allosteric modulation of human RXFP1 receptor expressed in CHO-K1 cells assessed as cAMP accumulation incubated for 30 mins by TR-FRET assay; type: functional, cell-based
T2 sequence (Q9HBX9 whole entry): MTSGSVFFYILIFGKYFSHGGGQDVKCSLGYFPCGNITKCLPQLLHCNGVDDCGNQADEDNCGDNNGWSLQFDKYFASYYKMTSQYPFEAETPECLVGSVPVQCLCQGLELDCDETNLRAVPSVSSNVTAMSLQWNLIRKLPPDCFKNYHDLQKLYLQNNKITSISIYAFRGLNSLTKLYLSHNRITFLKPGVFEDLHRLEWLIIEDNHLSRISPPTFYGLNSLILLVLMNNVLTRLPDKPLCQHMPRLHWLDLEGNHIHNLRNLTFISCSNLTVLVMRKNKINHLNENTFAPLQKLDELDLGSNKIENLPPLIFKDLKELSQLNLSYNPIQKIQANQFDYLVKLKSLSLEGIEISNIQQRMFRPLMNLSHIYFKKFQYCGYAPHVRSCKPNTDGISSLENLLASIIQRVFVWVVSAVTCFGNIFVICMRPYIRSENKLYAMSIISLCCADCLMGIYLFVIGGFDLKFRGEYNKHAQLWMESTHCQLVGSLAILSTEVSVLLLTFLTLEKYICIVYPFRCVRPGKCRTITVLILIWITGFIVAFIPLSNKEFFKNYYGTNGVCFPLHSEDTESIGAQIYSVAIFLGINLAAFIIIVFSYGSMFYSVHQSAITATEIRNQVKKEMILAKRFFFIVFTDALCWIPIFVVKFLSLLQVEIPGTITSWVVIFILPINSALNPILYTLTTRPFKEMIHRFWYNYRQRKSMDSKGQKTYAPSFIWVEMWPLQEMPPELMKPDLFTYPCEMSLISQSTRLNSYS

[10] = biological target: Relaxin-3 receptor 2 (Homo sapiens, UniProt Q8TDU9); assay: Negative allosteric modulation of human RXFP4 receptor expressed in CHO-K1 cells assessed as cAMP accumulation incubated for 30 mins by TR-FRET assay; type: functional, cell-based
[11] = Plasma protein binding in Wistar rat at 1 uM incubated for 6 hrs by LC-MS/MS analysis; type: ADME, cell-free
[12] = Brain concentration in male Wistar rat at 10 mg/kg, ip measured after 24 hrs; type: ADME, organism-based; conditions: in vivo
[13] = Brain concentration in female Wistar rat at 10 mg/kg, ip measured after 24 hrs; type: ADME, organism-based; conditions: in vivo
[14] = Cmax in male Wistar rat plasma at 10 mg/kg, ip administrated as single dose and measured 24 hrs post dose by LC-MS/MS analysis; type: ADME, organism-based; conditions: in vivo
[15] = Cmax in female Wistar rat plasma at 10 mg/kg, ip administrated as single dose and measured 24 hrs post dose by LC-MS/MS analysis; type: ADME, organism-based; conditions: in vivo
[16] = Tmax in male Wistar rat plasma at 10 mg/kg, ip administrated as single dose and measured 24 hrs post dose by LC-MS/MS analysis; type: ADME, organism-based; conditions: in vivo
[17] = Tmax in female Wistar rat plasma at 10 mg/kg, ip administrated as single dose and measured 24 hrs post dose by LC-MS/MS analysis; type: ADME, organism-based; conditions: in vivo
[18] = Half life in male Wistar rat plasma at 10 mg/kg, ip administrated as single dose and measured 24 hrs post dose by LC-MS/MS analysis; type: ADME, organism-based; conditions: in vivo
[19] = Half life in female Wistar rat plasma at 10 mg/kg, ip administrated as single dose and measured 24 hrs post dose by LC-MS/MS analysis; type: ADME, organism-based; conditions: in vivo
[20] = Clearance in male Wistar rat plasma at 10 mg/kg, ip administrated as single dose and measured 24 hrs post dose by LC-MS/MS analysis; type: ADME, organism-based
[21] = Clearance in female Wistar rat plasma at 10 mg/kg, ip administrated as single dose and measured 24 hrs post dose by LC-MS/MS analysis; type: ADME, organism-based
[22] = AUClast in male Wistar rat plasma at 10 mg/kg, ip administrated as single dose and measured 24 hrs post dose by LC-MS/MS analysis; type: ADME, organism-based
[23] = AUClast in female Wistar rat plasma at 10 mg/kg, ip administrated as single dose and measured 24 hrs post dose by LC-MS/MS analysis; type: ADME, organism-based
[24] = Cmax in male Wistar rat brain at 10 mg/kg, ip measured 24 hrs post dose by LC-MS/MS analysis; type: ADME, organism-based
[25] = Cmax in female Wistar rat brain at 10 mg/kg, ip measured 24 hrs post dose by LC-MS/MS analysis; type: ADME, organism-based
[26] = Tmax in male Wistar rat brain at 10 mg/kg, ip measured 24 hrs post dose by LC-MS/MS analysis; type: ADME, organism-based; conditions: in vivo
[27] = Tmax in female Wistar rat brain at 10 mg/kg, ip measured 24 hrs post dose by LC-MS/MS analysis; type: ADME, organism-based; conditions: in vivo
[28] = AUClast in male Wistar rat brain at 10 mg/kg, ip measured 24 hrs post dose by LC-MS/MS analysis; type: ADME, organism-based
[29] = AUClast in female Wistar rat brain at 10 mg/kg, ip measured 24 hrs post dose by LC-MS/MS analysis; type: ADME, organism-based
[30] = mdck-mdr1, 10 µM, time 30-90 min

Chain of Relaxin-3 receptor 2 (Q8TDU9 whole entry): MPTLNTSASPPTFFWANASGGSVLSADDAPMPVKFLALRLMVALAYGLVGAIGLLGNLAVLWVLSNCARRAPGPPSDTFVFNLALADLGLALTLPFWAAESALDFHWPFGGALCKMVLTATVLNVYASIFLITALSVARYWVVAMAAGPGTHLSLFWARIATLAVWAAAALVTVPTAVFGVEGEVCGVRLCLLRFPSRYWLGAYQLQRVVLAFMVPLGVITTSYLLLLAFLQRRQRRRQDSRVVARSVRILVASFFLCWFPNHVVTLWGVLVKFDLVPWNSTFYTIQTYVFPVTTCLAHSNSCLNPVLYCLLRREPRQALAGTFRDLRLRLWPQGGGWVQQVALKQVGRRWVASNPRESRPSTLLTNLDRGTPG

## O=C(Nc1ccc(-c2nc(-c3ccc(Cl)cc3)no2)cc1)C1CC(=O)N(Cc2cccnc2)C1 (stereo not given)
[1]
  IC50: 2.63 µM

## O=C(Nc1ccc(-c2nc(-c3ccc(Cl)cc3)no2)cc1)C1CC(=O)N(Cc2ccco2)C1 (stereo not given)
[1]
  IC50: 3.02 µM
[2]; PBS, pH 7.4, read-out: Kinetic_solubility
  solubility kinetic at 2 h: < 1 µM
[3]; cho-k1
  IC50: 2.36 µM
[4]; MDCK-MDR1, time 30-90 min
  Papp A→B at 10 µM: 1.3 ×10⁻⁶ cm/s
[5]; MDCK-MDR1, time 30-90 min
  Papp B→A at 10 µM: 1.3 ×10⁻⁶ cm/s
[6]
  efflux ratio at 10 µM: 1
[7]; liver microsomes
  half-life: 0.177 h
[8]
  CLH: 132 µL/min/mg

## CNCC(=O)Nc1ccc(-c2nc(-c3ccc(Cl)cc3)no2)cc1
[1]
  IC50: 2.63 µM

## O=C(Nc1ccc(-c2nc(-c3ccc(Cl)cc3)no2)cc1)C1CC(=O)N(CC2CCNCC2)C1 (stereo not given)
[1]
  IC50: 0.71 µM

## CNCCCN1CC(C(=O)Nc2ccc(-c3nc(-c4ccc(Cl)cc4)no3)cc2)CC1=O (stereo not given)
[1]
  IC50: 1.18 µM

## CNCCN1CCC(C(=O)Nc2ccc(-c3nc(-c4ccc(Cl)cc4)no3)cc2)CC1
[9]
  IC50: > 100 µM
[10]
  IC50: 14.3 µM

## CNCCCC(=O)Nc1ccc(-c2nc(-c3ccc(Cl)cc3)no2)cc1
[1]
  IC50: 2.09 µM

## CNCCN1CC(C(=O)Nc2ccc(-c3nc(-c4ccc(Cl)cc4)no3)cc2)CC1=O (stereo not given)
[9]
  IC50: > 100 µM
[10]
  IC50: 34.3 µM

## O=C(Nc1ccc(-c2nc(-c3ccc(Cl)cc3)no2)cc1)[C@@H]1CC(=O)N(C[C@@H]2CCCNC2)C1
[2]; buffer, pH 7.4, 2 h
  Kinetic_solubility: 10.1 µM
[11]
  PPB: 98%
[9]
  IC50: > 100 µM
[10]
  IC50: > 100 µM
[4]; [30]
  Papp: 1.1 10^-6 cm/s
[5]; [30]
  Papp: 3.1 10^-6 cm/s
[7]; microsomes, 0.75 h
  t1/2: 3.42 h
[8]
  CLH: 6.8 µL/min/mg
[12]
  Drug uptake: Active
[13]
  Drug uptake: Active
[14]
  Cmax: 2121 ng/mL
[15]
  Cmax: 2117 ng/mL
[16]
  Tmax: 0.5 h
[17]
  Tmax: 0.5 h
[18]
  t1/2: 12 h
[19]
  t1/2: 10 h
[20]
  CL/F: 18 mL/min/kg
[21]
  CL/F: 18 mL/min/kg
[22]
  AUC(0-t) at 24 h: 7370 ng·h/mL
[23]
  AUC(0-t) at 24 h: 8130 ng·h/mL
[24]
  Cmax: 185 ng/mL
[25]
  Cmax: 157 ng/mL
[26]
  Tmax: 1 h
[27]
  Tmax: 2 h
[28]
  AUC(0-t) at 24 h: 3270 ng·h/mL
[29]
  AUC(0-t) at 24 h: 1930 ng·h/mL

## CNCCC(=O)Nc1ccc(-c2nc(-c3ccc(Cl)cc3)no2)cc1
[1]
  IC50: 1.05 µM
[3]
  IC50: 0.59 µM
[9]
  IC50: 19.6 µM
[10]
  IC50: 4.87 µM

## NCCN1CC(C(=O)Nc2ccc(-c3nc(-c4ccc(Cl)cc4)no3)cc2)CC1=O (stereo not given)
[1]
  IC50: 1.45 µM

## O=C(Nc1ccc(-c2nc(-c3ccc(Cl)cc3)no2)cc1)C1CC(=O)N(CC2CCCCN2)C1 (racemic)
[1]
  IC50: 0.96 µM

## O=C(Nc1ccc(-c2nc(-c3ccc(Cl)cc3)no2)cc1)C1CC(=O)N(CC2CCNC2)C1 (racemic)
[1]
  IC50: 1.7 µM
